In patent US11673898B2, “Substituted inhibitors of menin-MLL and methods of use” (Kura Oncology, Inc., priority 2016, dated 2023):

Target: T1, Menin MLL 4-43 (Homo sapiens, UniProt O00255)
T1 sequence (O00255 1-610): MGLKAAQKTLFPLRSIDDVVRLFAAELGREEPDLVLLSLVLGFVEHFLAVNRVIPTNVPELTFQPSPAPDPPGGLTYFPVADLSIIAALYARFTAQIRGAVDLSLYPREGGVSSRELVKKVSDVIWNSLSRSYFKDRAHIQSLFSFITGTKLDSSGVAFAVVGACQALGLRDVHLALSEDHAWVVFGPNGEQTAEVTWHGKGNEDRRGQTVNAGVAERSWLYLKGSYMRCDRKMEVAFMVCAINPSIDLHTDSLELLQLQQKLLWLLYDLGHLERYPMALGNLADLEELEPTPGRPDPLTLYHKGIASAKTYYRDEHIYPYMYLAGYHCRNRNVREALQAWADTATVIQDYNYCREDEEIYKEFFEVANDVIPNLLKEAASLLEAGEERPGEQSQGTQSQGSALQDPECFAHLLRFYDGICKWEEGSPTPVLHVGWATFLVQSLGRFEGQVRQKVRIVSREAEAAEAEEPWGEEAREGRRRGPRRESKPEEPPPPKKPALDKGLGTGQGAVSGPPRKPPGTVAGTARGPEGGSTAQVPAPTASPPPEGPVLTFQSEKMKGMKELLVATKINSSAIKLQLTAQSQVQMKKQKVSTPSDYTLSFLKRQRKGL
Experiment: Fluorescence polarization (FP) competition assay of the menin-MLL interaction
Type: binding
Details: fluorescence polarization assay; read-out: Menin MLL 4-43 IC50

Compound | IC50 [nM]
C=CC(=O)Nc1ccc(C(Cn2c(C#N)cc3c(C)c(CN4CCC(Nc5ncnc6sc(CC(F)(F)F)cc56)CC4)ccc32)OC)cc1 (stereo not drawn) [Compound 1] | 20 to 1000
Cc1c(CN2CCC(Nc3ncnc4sc(CC(F)(F)F)cc34)CC2)ccc2c1cc(C#N)n2CC(C)N1CCN(S(C)(=O)=O)CC1 (stereo not drawn) [Compound 2] | 50 to 250
Cc1c(CN2CCC(Nc3ncnc4sc(CC(F)(F)F)cc34)CC2)ccc2c1cc(C#N)n2CC(C)N1CCN(S(C)(=O)=O)CC1 (stereo not drawn) [Compound 3] | 20 to 1000
CCS(=O)(=O)N1CCN(C(C)Cn2c(C#N)cc3c(C)c(CN4CCC(Nc5ncnc6sc(CC(F)(F)F)cc56)CC4)ccc32)CC1 (stereo not drawn) [Compound 4] | 50 to 250
CC(=O)N1CCN(C(C)Cn2c(C#N)cc3c(C)c(CN4CCC(Nc5ncnc6sc(CC(F)(F)F)cc56)CC4)ccc32)CC1 (stereo not drawn) [Compound 5] | 50 to 250
Cc1c(CN2CCC(Nc3ncnc4sc(CC(F)(F)F)cc34)CC2)ccc2c1cc(C#N)n2CC(C)N1CCN(C=O)CC1 (stereo not drawn) [Compound 6] | < 50
Cc1c(CN2CCC(Nc3ncnc4sc(CC(F)(F)F)cc34)CC2)ccc2c1cc(C#N)n2CC(C)N1CCN(S(N)(=O)=O)CC1 (stereo not drawn) [Compound 7] | 50 to 250
CNS(=O)(=O)N1CCN(C(C)Cn2c(C#N)cc3c(C)c(CN4CCC(Nc5ncnc6sc(CC(F)(F)F)cc56)CC4)ccc32)CC1 (stereo not drawn) [Compound 8] | < 50
Cc1c(CN2CCC(Nc3ncnc4sc(CC(F)(F)F)cc34)CC2)ccc2c1cc(C#N)n2CC(C)N1CCN(S(C)(=O)=O)C(C)C1 (stereo not drawn) [Compound 11] | 50 to 250
Cc1c(CN2CCC(Nc3ncnc4sc(CC(F)(F)F)cc34)CC2)ccc2c1cc(C#N)n2CC(C)N1C[C@@H](C)N(S(C)(=O)=O)[C@@H](C)C1 (stereo partly drawn) [Compound 12] | < 50
Cc1c(CN2CCC(Nc3ncnc4sc(CC(F)(F)F)cc34)CC2)ccc2c1cc(C#N)n2CC(C)N1CCN(S(C)(=O)=O)[C@@H](C)C1 (stereo partly drawn) [Compound 13] | < 50
Cc1c(CN2CCC(Nc3ncnc4sc(CC(F)(F)F)cc34)CC2)ccc2c1cc(C#N)n2CC(C)N1CCN(S(C)(=O)=O)[C@H](C)C1 (stereo partly drawn) [Compound 14] | < 50
CCC(Cn1c(C#N)cc2c(C)c(CN3CCC(Nc4ncnc5sc(CC(F)(F)F)cc45)CC3)ccc21)N1CCN(S(C)(=O)=O)CC1 (stereo not drawn) [Compound 15] | > 1000
Cc1c(CN2CCC(Nc3ncnc4sc(CC(F)(F)F)cc34)CC2)ccc2c1cc(C#N)n2CC(C)(C)N1CCN(S(C)(=O)=O)CC1 [Compound 16] | > 1000
Cc1c(CN2CCC(Nc3ncnc4sc(CC(F)(F)F)cc34)CC2)ccc2c1cc(C#N)n2C[C@@H](C)N1CCN(S(C)(=O)=O)[C@@H](C)C1 [Compound 17] | 50 to 250
Cc1c(CN2CCC(Nc3ncnc4sc(CC(F)(F)F)cc34)CC2)ccc2c1cc(C#N)n2C[C@H](C)N1CCN(S(C)(=O)=O)[C@@H](C)C1 [Compound 18] | < 50
Cc1c(CN2CCC(Nc3ncnc4sc(CC(F)(F)F)cc34)CC2)ccc2c1cc(C#N)n2C[C@H](C)N1CCN(S(C)(=O)=O)[C@H](C)C1 [Compound 19] | 50 to 250

Compound | IC50 [nM]
Cc1c(CN2CCC(Nc3ncnc4sc(CC(F)(F)F)cc34)CC2)ccc2c1cc(C#N)n2C[C@@H](C)N1CCN(S(C)(=O)=O)[C@H](C)C1 [Compound 20] | < 50
Cc1c(CN2CCC(Nc3ncnc4sc(CC(F)(F)F)cc34)CC2)ccc2c1cc(C#N)n2CC(C)N1C[C@H](C)N(S(C)(=O)=O)[C@@H](C)C1 (stereo partly drawn) [Compound 21] | 50 to 250
Cc1c(CN2CCC(Nc3ncnc4sc(CC(F)(F)F)cc34)CC2)ccc2c1cc(C#N)n2CC(C)N1C[C@@H](C)N(S(C)(=O)=O)[C@H](C)C1 (stereo partly drawn) [Compound 22] | < 50
Cc1c(CN2CCC(Nc3ncnc4sc(CC(F)(F)F)cc34)CC2)ccc2c1cc(C#N)n2CC(C1CC1)N1CCN(S(C)(=O)=O)CC1 (stereo not drawn) [Compound 23] | > 1000
Cc1c(CN2CCC(Nc3ncnc4sc(CC(F)(F)F)cc34)CC2)ccc2c1cc(C#N)n2CC(C(C)C)N1CCN(S(C)(=O)=O)CC1 (stereo not drawn) [Compound 24] | 20 to 1000
Cc1c(CN2CCC(Nc3ncnc4sc(CC(F)(F)F)cc34)CC2)ccc2c1cc(C#N)n2CC(C)N1CCN(S(C)(=O)=O)C(C)(C)C1 (stereo not drawn) [Compound 25] | 50 to 250
CC[C@H]1CN(C(C)Cn2c(C#N)cc3c(C)c(CN4CCC(Nc5ncnc6sc(CC(F)(F)F)cc56)CC4)ccc32)CCN1S(C)(=O)=O (stereo partly drawn) [Compound 26] | 20 to 1000
Cc1c(CN2CCC(Nc3ncnc4sc(CC(F)(F)F)cc34)CC2)ccc2c1cc(C#N)n2C(C)CN1CCN(S(C)(=O)=O)CC1 (stereo not drawn) [Compound 27] | < 50
Cc1c(CN2CCC(Nc3ncnc4sc(CC(F)(F)F)cc34)CC2)ccc2c1cc(C#N)n2CC(C)N1CC2CCC(C1)N2S(C)(=O)=O (stereo not drawn) [Compound 28] | < 50
CC[C@@H]1CN(C(C)Cn2c(C#N)cc3c(C)c(CN4CCC(Nc5ncnc6sc(CC(F)(F)F)cc56)CC4)ccc32)CCN1S(C)(=O)=O (stereo partly drawn) [Compound 29] | 50 to 250
Cc1c(CN2CCC(Nc3ncnc4sc(CC(F)(F)F)cc34)CC2)ccc2c1cc(C#N)n2CC(C)N1CC2CC(C1)N2S(C)(=O)=O (stereo not drawn) [Compound 30] | 50 to 250
Cc1c(CN2CCC(Nc3ncnc4sc(CC(F)(F)F)cc34)CC2)ccc2c1cc(C#N)n2CC(=O)N1CCN(S(C)(=O)=O)CC1 [Compound 35, 4-methyl-1-(2-(4-(methylsulfonyl)piperazin-1-yl)-2-oxoethyl)-5-((4-((6-(2,2,2-trifluoroethyl)thieno[2,3-d]pyrimidin-4-yl)amino)piperidin-1-yl)methyl)-1H-indole-2-carbonitrile] | > 1000
Cc1c(CN2CCC(Nc3ncnc4sc(CC(F)(F)F)cc34)CC2)ccc2c1cc(C#N)n2CCN1CCN(S(C)(=O)=O)C(C)C1 (stereo not drawn) [Compound 43] | 50 to 250
Cc1c(CN2CCC(Nc3ncnc4sc(CC(F)(F)F)cc34)CC2)ccc2c1cc(C#N)n2CCN1CC(C)N(S(C)(=O)=O)CC1C (stereo not drawn) [Compound 44] | 20 to 1000
Cc1c(CN2CCC(Nc3ncnc4sc(CC(F)(F)F)cc34)CC2)ccc2c1cc(C#N)n2CCN1CCN(S(C)(=O)=O)CC1C (stereo not drawn) [Compound 45] | 20 to 1000
Cc1c(CN2CCC(Nc3ncnc4sc(CC(F)(F)F)cc34)CC2)ccc2c1cc(C#N)n2CCN1C[C@@H](C)N(S(C)(=O)=O)[C@@H](C)C1 [Compound 46] | 50 to 250

Second part, the compound after the results:

IC50 [nM] | Compound
> 1000 | Cc1c(CN2CCC(Nc3ncnc4sc(CC(F)(F)F)cc34)CC2)ccc2c1cc(C#N)n2CCN1C(C)CN(S(C)(=O)=O)CC1C (stereo not drawn) [Compound 47]
50 to 250 | Cc1c(CN2CCC(Nc3ncnc4sc(CC(F)(F)F)cc34)CC2)ccc2c1cc(C#N)n2CCN1C[C@@H](C)N(S(C)(=O)=O)[C@H](C)C1 [Compound 48]
50 to 250 | Cc1c(CN2CCC(Nc3ncnc4sc(CC(F)(F)F)cc34)CC2)ccc2c1cc(C#N)n2CCN1C[C@H](C)N(S(C)(=O)=O)[C@@H](C)C1 [Compound 49]
20 to 1000 | Cc1c(CN2CCC(Nc3ncnc4sc(CC(F)(F)F)cc34)CC2)ccc2c1cc(C#N)n2CCN1CCC2(CC1)CCN(S(C)(=O)=O)C2 [Compound 52]
20 to 1000 | Cc1c(CN2CCC(Nc3ncnc4sc(CC(F)(F)F)cc34)CC2)ccc2c1cc(C#N)n2CCN1CCC2(CCN(S(C)(=O)=O)C2)C1 (stereo not drawn) [Compound 53]
50 to 250 | Cc1c(CN2CCC(Nc3ncnc4sc(CC(F)(F)F)cc34)CC2)ccc2c1cc(C#N)n2CCN1CCC2(CC1)CN(S(C)(=O)=O)C2 [Compound 54]
20 to 1000 | Cc1c(CN2CCC(Nc3ncnc4sc(CC(F)(F)F)cc34)CC2)ccc2c1cc(C#N)n2CCN1CC2CN(S(C)(=O)=O)CC2C1 (stereo not drawn) [Compound 55]
20 to 1000 | Cc1c(CN2CCC(Nc3ncnc4sc(CC(F)(F)F)cc34)CC2)ccc2c1cc(C#N)n2CCN1CC2(CCN(S(C)(=O)=O)CC2)C1 [Compound 56]
20 to 1000 | Cc1c(CN2CCC(Nc3ncnc4sc(CC(F)(F)F)cc34)CC2)ccc2c1cc(C#N)n2CCN1CC2(C1)CN(S(C)(=O)=O)C2 [Compound 57]
20 to 1000 | Cc1c(CN2CCC(Nc3ncnc4sc(CC(F)(F)F)cc34)CC2)ccc2c1cc(C#N)n2CCN1CC2(CCN(S(C)(=O)=O)C2)C1 [Compound 58]
20 to 1000 | Cc1c(CN2CCC(Nc3ncnc4sc(CC(F)(F)F)cc34)CC2)ccc2c1cc(C#N)n2CCC1CCN(S(C)(=O)=O)C(C)C1 (stereo not drawn) [Compound 59]
> 1000 | Cc1c(CN2CCC(Nc3ncnc4sc(CC(F)(F)F)cc34)CC2)ccc2c1cc(C#N)n2CCC1(C)CCN(S(C)(=O)=O)CC1 [Compound 60]
50 to 250 | Cc1c(CN2CCC(Nc3ncnc4sc(CC(F)(F)F)cc34)CC2)ccc2c1cc(C#N)n2CC1(N2CCN(S(C)(=O)=O)CC2)CC1 [Compound 61]
> 1000 | Cc1c(CN2CCC(Nc3ncnc4sc(CC(F)(F)F)cc34)CC2)ccc2c1cc(C#N)n2CC(CO)N1CCN(S(C)(=O)=O)CC1 (stereo not drawn) [Compound 62]
< 50 | CNS(=O)(=O)N1CCN([C@@H](C)Cn2c(C#N)cc3c(C)c(CN4CCC(Nc5ncnc6sc(CC(F)(F)F)cc56)CC4)ccc32)CC1 [Compound 64]
< 50 | Cc1c(CN2CCC(Nc3ncnc4sc(CC(F)(F)F)cc34)CC2)ccc2c1cc(C#N)n2C[C@H](C)N1CCN(C=O)CC1 [Compound 65]
20 to 1000 | CNS(=O)(=O)N1CCN([C@H](C)Cn2c(C#N)cc3c(C)c(CN4CCC(Nc5ncnc6sc(CC(F)(F)F)cc56)CC4)ccc32)CC1 [Compound 66]
20 to 1000 | Cc1c(CN2CCC(Nc3ncnc4sc(CC(F)(F)F)cc34)CC2)ccc2c1cc(C#N)n2C[C@@H](C)N1CCN(C=O)CC1 [Compound 67]
